Laboratory results as given in patent US6096874A (Board of Regents, the University of Texas System, priority 1995, dated 2000).
Where two headings read alike, the source gives them in different places.

Legend:
[1] = Biodistribution in estradiol-primed or unprimed female Sprague-Dawley rats; assay type: in vivo, rat
Experimental: Four groups of rats (150-200 gm, N=4/group) were anesthetized with ketamine (10-15 mg/rat). […]. Tissue uptake of ^18 F-tracer was determined at 2 and 4 hours (h). To ascertain whether the ^18 F-tracer uptake was mediated by a receptor-process, one group of rats was given ^18 F-tracer without priming with estradiol; and another group of rats was given unlabeled estradiol (30 μg/rat) together with ^18 F-tracer. […].
The inventors first determined the in vivo tissue distribution of [^18 F-FTX] in rats. Specifically, four groups of female Sprague-Dawley rats (N=4/group, 200-250 gm; obtained from Harlan Inc., Indianapolis, Ind.) were anesthetized with ketamine (10-15 mg/rat). […]. The tissue distribution was studied at 2 hour and 4 hour intervals.

in vivo = assay: in vivo; design: species or system rat; details: for Tumor uptake: 120 min; for tissue uptake at 0.5 h / tissue uptake at 2 h / tissue uptake at 4 h: iv; for tissue uptake at 0.5 h: 30 min
Experimental: In animal tissue distribution studies, each rate was given 8.9 μCi (0.15 ml) tracer intravenously. The tumor-bearing rats were killed at 1, 3, 6 and 24 h. […] The amount of DES given should occupy tumor estrogen receptor sites. The methods for inducing tumors in rats was as described by those of skill in the art (radiology). […]
Female Fisher 344 rats (250-275 g) (Harlan, Inc., Indianapolis, Ind.) were inoculated with mammary tumor cells using the 13762 tumor cell line (s.c. 10^5 cells/rat). After 14 days, a tumor size of 1-2 cm was observed. For ^131 I-ITX studies, five groups of rats (N=3/group) were anesthetized with ketamine (10-15 mg/rat). The trans ^131 I-ITX was given to four of the five groups (8.9 μCi/rat, i.v.) and biodistribution was studied at 1, 3, 6 and 24 h intervals. In blocking studies, the fifth group of rats was given diethylstilbestrol (DES) (1.2 mg/rat) for 1 h, followed by 8.9 μCi of ^131 I-ITX; biodistribution was studied 6 h later. The tissues were collected at different time intervals. The tissues were weighted and counted for radioactivity. The percent of injected dose per gram of tissue weight was calculated. […]

breast tumors = assay: PET imaging of ER+ breast tumors in patients; assay type: in vivo, human; details: for SUV in lesion of patients responding poorly to tamoxifen therapy: 4/5 patients
[2] = 2 h, blocked with estradiol 30 μg, listed as 18 Ftracer, 120 min
[3] = 2 h, blocked with estradiol 30 μg, listed as N,N-DIETHYL-[^18 F]FLUOROMETHYLTAMOXIFEN, 120 min
[4] = 2 h, estradiol-primed, listed as 18 Ftracer, 120 min
[5] = 2 h, not primed, listed as 18 Ftracer, 120 min
[6] = 2 h, not primed, listed as N,N-DIETHYL-[^18 F]FLUOROMETHYLTAMOXIFEN, 120 min
[7] = 4 h, estradiol-primed, listed as 18 Ftracer, 240 min
[8] = 2 h, pretreated with DES (blocking)
[9] = rat, blood, read-out: Blood uptake
[10] = rat, bone, read-out: Bone uptake
[11] = rat, kidney, read-out: Kidney uptake
[12] = rat, liver, read-out: Liver uptake
[13] = rat, lung, read-out: Lung uptake
[14] = rat, muscle, read-out: Muscle uptake
[15] = rat, tumor, read-out: Tumor uptake
[16] = rat, uterus, read-out: Uterus uptake

With `CCN(CC)CCOc1ccc(/C(=C(/CCC[18F])c2ccccc2)c2ccccc2)cc1` [[^18 F]FTX, (trans)[^18 F]Fluoromethyl-N,N-diethyltamoxifen] the Blood uptake [1, 2] was 0.048 % OF INJECTED DOSE/GRAM OF TIS, the Bone uptake [1, 2] was 0.576 % OF INJECTED DOSE/GRAM OF TIS and the Intestine uptake [1, 2] was 0.742 % OF INJECTED DOSE/GRAM OF TIS. For the same compound, the Liver uptake [1, 2] was 4.451 % OF INJECTED DOSE/GRAM OF TIS, the Muscle uptake [1, 2] was 0.145 % OF INJECTED DOSE/GRAM OF TIS and the Uterus uptake [1, 2] was 0.297 % OF INJECTED DOSE/GRAM OF TIS. The Blood uptake [1, 3] was 0.048 % OF INJECTED DOSE/GRAM OF TISSUE WEIGHT, the Bone uptake [1, 3] was 0.576 % OF INJECTED DOSE/GRAM OF TISSUE WEIGHT and the Intestine uptake [1, 3] was 0.742 % OF INJECTED DOSE/GRAM OF TISSUE WEIGHT. The Liver uptake [1, 3] was 4.451 % OF INJECTED DOSE/GRAM OF TISSUE WEIGHT, the Muscle uptake [1, 3] was 0.145 % OF INJECTED DOSE/GRAM OF TISSUE WEIGHT and the Uterus uptake [1, 3] was 0.297 % OF INJECTED DOSE/GRAM OF TISSUE WEIGHT. For the same compound, the Blood uptake [1, 4] was 0.033 % OF INJECTED DOSE/GRAM OF TIS, the Bone uptake [1, 4] was 0.653 % OF INJECTED DOSE/GRAM OF TIS and the Intestine uptake [1, 4] was 0.917 % OF INJECTED DOSE/GRAM OF TIS. For the same compound, the Kidney uptake [1, 4] was 0.742 % OF INJECTED DOSE/GRAM OF TIS, the Liver uptake [1, 4] was 4.540 % OF INJECTED DOSE/GRAM OF TIS and the Muscle uptake [1, 4] was 0.151 % OF INJECTED DOSE/GRAM OF TIS. The Uterus uptake [1, 4] was 0.426 % OF INJECTED DOSE/GRAM OF TIS, the Bone uptake ([1]; 2 h, estradiol-primed, listed as [^18 F]fluoro analogue of tamoxifen, 120 min) was 0.65 % OF INJECTED DOSE/GRAM OF TIS and the Blood uptake [1, 5] was 0.033 % OF INJECTED DOSE/GRAM OF TIS. For the same compound, the Bone uptake [1, 5] was 0.644 % OF INJECTED DOSE/GRAM OF TIS, the Intestine uptake [1, 5] was 0.504 % OF INJECTED DOSE/GRAM OF TIS and the Kidney uptake [1, 5] was 0.530 % OF INJECTED DOSE/GRAM OF TIS. For the same compound, the Liver uptake [1, 5] was 3.849 % OF INJECTED DOSE/GRAM OF TIS, the Muscle uptake [1, 5] was 0.109 % OF INJECTED DOSE/GRAM OF TIS and the Uterus uptake [1, 5] was 0.248 % OF INJECTED DOSE/GRAM OF TIS. For the same compound, the Blood uptake [1, 6] was 0.033 % OF INJECTED DOSE/GRAM OF TISSUE WEIGHT, the Bone uptake [1, 6] was 0.644 % OF INJECTED DOSE/GRAM OF TISSUE WEIGHT and the Intestine uptake [1, 6] was 0.504 % OF INJECTED DOSE/GRAM OF TISSUE WEIGHT. For the same compound, the Kidney uptake [1, 6] was 0.530 % OF INJECTED DOSE/GRAM OF TISSUE WEIGHT, the Liver uptake [1, 6] was 3.849 % OF INJECTED DOSE/GRAM OF TISSUE WEIGHT and the Muscle uptake [1, 6] was 0.109 % OF INJECTED DOSE/GRAM OF TISSUE WEIGHT. The Uterus uptake [1, 6] was 0.248 % OF INJECTED DOSE/GRAM OF TISSUE WEIGHT, the Blood uptake [1, 7] was 0.045 % OF INJECTED DOSE/GRAM OF TIS and the Bone uptake [1, 7] was 0.802 % OF INJECTED DOSE/GRAM OF TIS. For the same compound, the Intestine uptake [1, 7] was 1.101 % OF INJECTED DOSE/GRAM OF TIS, the Kidney uptake [1, 7] was 0.796 % OF INJECTED DOSE/GRAM OF TIS and the Liver uptake [1, 7] was 4.205 % OF INJECTED DOSE/GRAM OF TIS. The Muscle uptake [1, 7] was 0.183 % OF INJECTED DOSE/GRAM OF TIS, the Uterus uptake [1, 7] was 0.400 % OF INJECTED DOSE/GRAM OF TIS and the Bone uptake ([1]; 4 h, estradiol-primed, listed as [^18 F]fluoro analogue of tamoxifen, 240 min) was 0.80 % OF INJECTED DOSE/GRAM OF TIS. For the same compound, the Blood uptake (in vivo; [8]) was 0.102 % injected dose/gram tissue, the Bone uptake (in vivo; [8]) was 0.278 % injected dose/gram tissue and the Kidney uptake (in vivo; [8]) was 1.241 % injected dose/gram tissue. For the same compound, the Liver uptake (in vivo; [8]) was 7.242 % injected dose/gram tissue, the Lung uptake (in vivo; [8]) was 2.084 % injected dose/gram tissue and the Muscle uptake (in vivo; [8]) was 0.131 % injected dose/gram tissue. The Uterus uptake (in vivo; [8]) was 0.435 % injected dose/gram tissue, the Tumor uptake (in vivo; [8]) was 0.24±0.017 % injected dose/gram tissue and the Tumor uptake (in vivo; 2 h, pretreated with DES (blocking), listed as [^18 F]FLUOROMETHYL-N,N-DIETHYL-TAMOXIFEN) was 0.244 % injected dose/gram tissue. The Tumor uptake (in vivo; 2 h) was 0.405 % injected dose/gram tissue, the tissue uptake at 0.5 h (in vivo; [9]) was 0.169 %ID/g and the tissue uptake at 2 h (in vivo; rat, blood, 2 h, read-out: Blood uptake) was 0.114 %ID/g. For the same compound, the tissue uptake at 4 h (in vivo; [9]) was 0.069 %ID/g, the tissue uptake at 0.5 h (in vivo; [10]) was 0.264 %ID/g and the tissue uptake at 2 h (in vivo; rat, bone, 2 h, read-out: Bone uptake) was 0.482 %ID/g. The tissue uptake at 4 h (in vivo; [10]) was 0.258 %ID/g, the “Tissue uptake findings (in words)” value (in vivo; rat, in vivo) was “increased uptake in the tumor and uterus can be blocked by pretreatment with diethylstilbestrol (DES)” and the tissue uptake at 0.5 h (in vivo; [11]) was 1.71 %ID/g. It also gave a tissue uptake at 2 h (in vivo; rat, kidney, 2 h, read-out: Kidney uptake) of 2.08 %ID/g, a tissue uptake at 4 h (in vivo; [11]) of 0.652 %ID/g and a tissue uptake at 0.5 h (in vivo; [12]) of 6.36 %ID/g. It also gave a tissue uptake at 2 h (in vivo; rat, liver, 2 h, read-out: Liver uptake) of 6.93 %ID/g, a tissue uptake at 4 h (in vivo; [12]) of 6.5 %ID/g and a tissue uptake at 0.5 h (in vivo; [13]) of 3.82 %ID/g. For the same compound, the tissue uptake at 2 h (in vivo; rat, lung, 2 h, read-out: Lung uptake) was 3.5 %ID/g, the tissue uptake at 4 h (in vivo; [13]) was 1.31 %ID/g and the tissue uptake at 0.5 h (in vivo; [14]) was 0.183 %ID/g. It also gave a tissue uptake at 2 h (in vivo; rat, muscle, 2 h, read-out: Muscle uptake) of 0.234 %ID/g, a tissue uptake at 4 h (in vivo; [14]) of 0.093 %ID/g and a tissue uptake at 0.5 h (in vivo; [15]) of 0.256 %ID/g. The tissue uptake at 2 h (in vivo; rat, tumor, 2 h, read-out: Tumor uptake) was 0.41 ± 0.07 %ID/g, the tissue uptake at 4 h (in vivo; [15]) was 0.284 %ID/g and the tissue uptake at 0.5 h (in vivo; [16]) was 0.536 %ID/g. For the same compound, the tissue uptake at 4 h (in vivo; [16]) was 0.364 %ID/g, the “SUV in lesion of patients responding poorly to tamoxifen therapy” value (breast tumors; listed as 18 F-tamoxifen) was < 2.0 and the “SUV in lesion of patients responding poorly to tamoxifen therapy” value (breast tumors; listed as [^18 f]fluorotamoxifen) was “less than 2.0”. The SUV (breast tumors; patient 1, left breast) was 1.6, the SUV (breast tumors; patient 1, spine) was 6.2 and the SUV (breast tumors; patient 1, sternum) was 4.2. For the same compound, the SUV (breast tumors; patient 3, left breast) was 2.6, the SUV (breast tumors; patient 4, right axilla) was 1.3 and the SUV (breast tumors; patient 5, lung) was 3.3. For the same compound, the SUV (breast tumors; patient 6, left axilla) was 2.9, the SUV (breast tumors; patient 7, skull) was 0.9 and the SUV (breast tumors; patient 8, neck) was 2.4. It also gave an SUV (breast tumors; patient 9, scapula) of 1.3 and an SUV (breast tumors; patient 10, spine) of 6.3.
